The text below walks through data of patent US20070254887A1, “Pharmaceutical Composition for Transdermal Administration of Perospirone” (priority 2004, published 2007).

Where a name gives a salt, the structure may show the parent alone.

Series [1] concerns antiserotonin activity. Particulars: rat; cited from earlier work.
For series [2], the system named is tryptamine-induced clonic seizures of forepaws. The series is described as follows: Antiserotonin activities in rat tryptamine-induced clonic seizures of forepaws model. Type of series: in vivo, SD rats. The following applies: for Efficacy (positive numbers/total numbers): placebo tape 1 cm × 1 cm. How it is done:
Antiserotonin activities of the perospirone tape prepared in Example 14 (Formulation 10) and the perospirone tape prepared in Example 15 (Formulation 11) were assessed in a rat tryptamine-induced clonic seizures of forepaws model. The test was carried out according to the description of Jpn. J. Pharmacol. 53, 321-329 (1990).
Specifically, 7-week-old SD rats were dehaired the back on the day before the test, the tapes were patched on the back, and further water was administered orally in an amount of 5 ml/Kg. After the patching of tapes, a tryptamine hydrochloride was administered via tail veins in a dose of 40 mg/Kg at predetermined times as assessment times, and appearance of a clonic seizures of forepaws was observed.
7-Week-old SD rats were dehaired the back on the day before the test, patched with the placebo tape (Reference Formulation 1) containing no perospirone prepared in Reference Example 1 on the back, and administered orally perospirone hydrochloride hydrate in a dose of 3 mg/Kg or 0.5 mg/Kg. After administrations, a tryptamine hydrochloride was administered via tail veins in a dose of 40 mg/Kg at predetermined times as assessment times. An inhibitory effect of a tryptamine-induced behavior was determined in the same manner as Experiment 1.

Series [3] relates to apomorphine-induced stereotypy. The series is described as follows: Antidopaminergic activities in rat apomorphine-induced stereotypy model. Format: in vivo, SD rats. The following applies: for Efficacy (positive numbers/total numbers): placebo tape 1 cm × 1 cm. How it is done: […]. The test was carried out according to the description of Jpn. J. Pharmacol. 53, 321-329 (1990).
Specifically, 7-week-old SD rats were dehaired the back on the day before the test, patched the tapes on the back, and further water was administered orally in an amount 5 ml/Kg. After the patching, an apomorphine hydrochloride was administered via tail veins in a dose of 1.25 mg/Kg at predetermined times as assessment times, and stereotypy was observed.
7-Week-old SD rats were dehaired the back on the day before the test, patched the placebo tape (Reference Formulation 1) containing no perospirone prepared in Reference Example 1 on the back, and administered orally perospirone hydrochloride hydrate in a dose of 10 mg/Kg or 2 mg/Kg. Thereafter, an apomorphine hydrochloride was administered via tail veins in a dose of 1.25 mg/Kg at predetermined times as assessment times. An inhibitory effect of an apomorphine-induced behavior was determined in the same manner as Experiment 2.

Series [4] is described as follows: Blood kinetics assessment: serum concentrations of perospirone and ID-15036 after transdermal or oral administration. Format: in vivo, SD male rats. The following applies: rat, oral administration, first measurement point (FIG. 5). How it is done: 7-Week-old SD male rats were anesthetized and dehaired the abdomen. The rats were administered with transdermal formulations Formulations 1 to 8 in the sites of the dehaired abdomen and constantly collected blood, and serums were separated. The serums were partitioned and extracted with n-hexane-chloroform (7:3) and about 0.0005M aqueous sodium hydroxide solution, and the organic layers were evaporated and dried to solids. The resulting solids were dissolved, and serum concentrations of perospirone and its main metabolite ID-15036 were determined by quantification via reverse phase high performance liquid chromatography. […]
7-Week-old SD male rats were administered orally with 10 mg/kg of a solution of perospirone hydrochloride hydrate in a distilled water for injection in a concentration of 2 mg/ml, and the blood was collected with lapse of time. Serum concentrations of perospirone and the main metabolite ID-15036 were determined in the same manner as Experiment 3. […]

Turning to `O=C1C2CCCCC2(O)C(=O)N1CCCCN1CCN(c2nsc3ccccc23)CC1` (centres unmarked) [ID-15036], the “antiserotonin activity compared to perospirone” value in series [1] is given as “about ⅛”.

For the molecule `O=C1[C@H]2CCCC[C@H]2C(=O)N1CCCCN1CCN(c2nsc3ccccc23)CC1` [perospirone hydrochloride hydrate], the “Efficacy (positive numbers/total numbers)” value is reported as 0/5 in series [2] (oral 0.5 mg/Kg, 1 hour after administration); 3/5 in series [2] (oral 3 mg/Kg, 1 hour after administration); 0/7 in series [2] (oral 3 mg/Kg, 10 hours after administration); 2/5 in series [3] (oral 2 mg/Kg, 1 hour after administration); 5/5 in series [3] (oral 10 mg/Kg, 1 hour after administration); 4/5 in series [3] (oral 10 mg/Kg, 10 hours after administration). Moreover, the “Efficacy (positive numbers/total numbers)” value in series [3] (oral 10 mg/Kg, 48 hours after administration) is recorded as 0/5. In addition, the “time of maximum serum concentrations after administration” value in series [4] stood at 30 min.

On to `O=C1[C@H]2CCCC[C@H]2C(=O)N1CCCCN1CCN(c2nsc3ccccc23)CC1` [perospirone, cis-N-[4-[4-(1,2-benzisothiazol-3-yl)-1-piperazinyl]butyl]cyclohexane-1,2-dicarboximide], for which, in series [2] (oral administration, group of 3 mg/Kg), the antiserotonin activities result is “antiserotonin activities could not be recognized 10 hours after administration”. The antidopaminergic activities entry in series [3] (oral administration) was “showed antidopaminergic activities 1 and 10 hours after administration but not 48 hours after administration”.
